Data as given in article PMC10692163, “Structure-based discovery of novel P-glycoprotein inhibitors targeting the nucleotide binding domains” (Scientific Reports, 2023).
Where two headings read alike, the source gives them in different places.

Tests used:
[1] = test system: P-gp nucleotide binding domain; conditions: Table S1, supplement reference list, cited from earlier work
P-gp [2] = target: T1, P-gp (Homo sapiens, UniProt P08183); set-up: method as in PMID 1356264, PMID 7911680, PMID 7772017, PMID 11121420; conditions: read-out: Binding affinity for ATP to P-gp; cited from earlier work
T1 sequence (P08183 whole entry): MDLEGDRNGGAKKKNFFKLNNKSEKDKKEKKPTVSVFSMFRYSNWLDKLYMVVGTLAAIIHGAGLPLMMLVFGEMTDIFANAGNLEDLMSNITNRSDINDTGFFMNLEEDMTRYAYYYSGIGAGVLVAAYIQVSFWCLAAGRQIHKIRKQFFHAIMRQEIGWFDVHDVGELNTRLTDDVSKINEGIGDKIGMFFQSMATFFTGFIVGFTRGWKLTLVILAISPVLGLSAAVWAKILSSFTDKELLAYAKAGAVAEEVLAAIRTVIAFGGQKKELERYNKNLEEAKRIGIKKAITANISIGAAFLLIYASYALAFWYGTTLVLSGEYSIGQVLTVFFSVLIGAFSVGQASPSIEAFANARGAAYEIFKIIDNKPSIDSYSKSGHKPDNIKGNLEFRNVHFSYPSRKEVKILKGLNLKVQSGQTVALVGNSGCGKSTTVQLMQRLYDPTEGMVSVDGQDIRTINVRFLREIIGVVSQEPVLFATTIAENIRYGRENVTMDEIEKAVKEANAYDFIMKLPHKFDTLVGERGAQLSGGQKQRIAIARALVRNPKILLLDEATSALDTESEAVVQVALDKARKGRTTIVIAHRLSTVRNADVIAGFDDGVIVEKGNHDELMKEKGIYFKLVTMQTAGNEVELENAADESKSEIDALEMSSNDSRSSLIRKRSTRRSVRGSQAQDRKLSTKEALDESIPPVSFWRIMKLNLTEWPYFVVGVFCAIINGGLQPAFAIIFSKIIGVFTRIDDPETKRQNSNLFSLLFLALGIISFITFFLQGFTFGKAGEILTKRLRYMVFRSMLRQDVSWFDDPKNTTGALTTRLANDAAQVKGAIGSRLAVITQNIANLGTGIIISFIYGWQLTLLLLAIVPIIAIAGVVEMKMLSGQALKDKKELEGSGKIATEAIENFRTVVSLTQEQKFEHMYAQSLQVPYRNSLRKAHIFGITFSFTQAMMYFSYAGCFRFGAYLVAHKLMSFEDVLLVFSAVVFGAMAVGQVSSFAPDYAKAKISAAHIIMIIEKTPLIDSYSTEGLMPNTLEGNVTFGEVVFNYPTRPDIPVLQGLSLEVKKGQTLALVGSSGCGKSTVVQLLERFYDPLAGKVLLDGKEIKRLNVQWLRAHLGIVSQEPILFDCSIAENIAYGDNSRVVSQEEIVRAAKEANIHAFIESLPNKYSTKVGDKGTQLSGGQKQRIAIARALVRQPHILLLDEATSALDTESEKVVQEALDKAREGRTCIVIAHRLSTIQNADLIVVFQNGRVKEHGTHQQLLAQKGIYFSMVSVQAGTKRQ

P-gp [3] = target: T1, P-gp; assay: Inhibition of verapamil-stimulated sensitive ATPase activity (ATP consumption) in P-gp expressing Sf9 vesicles; assay type: biochemical; set-up: purchased GenoMembrane Co., Ltd (Kanagawa, Japan); host or cells: Sf9 insect cells infected with baculovirus; purified plasma membrane vesicles; conditions: for IC50: 50 µM verapamil
Experimental: P-gp-mediated drug transport across membranes is driven by energy derived from hydrolysis of ATP. It is, therefore, possible to evaluate drug binding to P-gp by determining the ATPase activity. The method was modified from the procedure reported by Sarkadi et al.[64]. Briefly, solutions of test compounds and positive and negative controls in a reaction medium containing 50 mM MOPS-Tris (pH 7.4), 0.1 mM EGTA, 2 mM DDT, 50 mM KCl, 5 mM sodium azide, and 1 mM ouabain were incubated on ice in a 96 well plate. Then P-gp containing membrane vesicles to a final concentration of 0.5 mg/ml were added on ice to each well. […] Then, the ATPase reaction was started by the addition of MgATP to a final concentration of 5 mM and the plates with vesicles were incubated at 37 ^∘ C for 60 min. The reaction was stopped by the addition of a 10% SDS solution and the amount of inorganic phosphate was determined immediately by addition of a coloring solution containing final concentrations of 8 mM ascorbic acid, 10 mM zinc acetate, and 7 mM ammonium molybdate. The wells were then incubated at 37 ^∘ C for 20 min and the absorbance was scanned at wave lengths from 630 to 850 nm, and 740 nm was used for calculation of ATP consumption based on a phosphate standard curve freshly made with each experiment. To estimate sensitive ATPase activity mediated by P-gp, all experiments were conducted with no compound controls (2% DMSO), positive controls and background controls in which no stop solution was added, all in the absence and presence of 500 µM vanadate. The absorbance measured for a test condition was converted to nmol inorganic phosphate and normalized for reaction time and protein amount. The sensitive ATPase activity was then obtained by subtracting the inorganic phosphate generated in the presence of 500 µM vanadate at otherwise similar conditions.
(§1) Calcein fluorescence in arbitrary unit (a.u) corrected for background signal, which was the signal obtained from the cells incubated with HBSS ^7.4+ or HBSS ^5.5+ without calcein-AM, was plotted as a function of time and slopes (denoted m below) were obtained by linear regression. The increase in fluorescent calcein is a surrogate marker of increased P-gp inhibition. The slope from curves of fluorescence as a function of time for a compound ( mcompound ) was normalized to the slope of fluorescence in cells exposed to HBSS ^7.4+ or HBSS ^5.5+ only (referred as control, mcontrol ).

P-gp [4] = target: T1, P-gp; assay: Calcein-AM efflux assay in MDCKII MDR1 cells; assay type: cell-based; set-up: host or cells: MDCKII MDR1 cells
Experimental: Calcein-AM efflux experiments were performed on MDCKII MDR1 cells, which were seeded on black 96-well microplates. Before the experiments, media was removed from the wells and 50 µL pre-warmed HBSS ^7.4+ was added. After a 15 min incubation period, the HBSS ^7.4+ buffer was removed and 50 µL of solution containing P-gp inhibitor or test compound dissolved in HBSS ^7.4+ or HBSS ^5.5+ were added to the individual wells, followed by addition of 50 µL 10.0 µM calcein-AM giving a final calcein-AM concentration of 5.0 µM. Calcein-AM diffuses into the cell where it is either hydrolysed to a membrane-impermeable fluorescent calcein dye or extruded from the cell by P-gp[63]. Inhibiting P-gp increases the amount of calcein in the cell and a higher amount is hydrolysed to calcein, thus the fluorescence measured is increased. The highest concentration of each compound was added to a cell-containing well in the absence of calcein-AM to investigate if compounds were fluorescent themselves.
as §1

[5] = Sf9 vesicles expressing human P-gp, 5 mM MgATP, 60 min, 37 °C, read-out: ATP assay IC50

## O=c1c(O)c(-c2ccccc2)oc2ccccc12 [3OH-flavone]
[1]; ref [4]
  Class (known P-gp NBD inhibitor): Marginal

## C=C(CO)C1Cc2c(ccc3c(=O)c4c(oc23)COc2cc(OC)c(OC)cc2-4)O1 (centres unmarked) [6a,12a,-Dehydroamorphigenin]
[1]; ref [1]
  Class (known P-gp NBD inhibitor): Marginal

## C=C(CO)[C@H]1Cc2c(ccc3c2O[C@@H]2COc4cc(OC)c(OC)cc4[C@]2(O)C3=O)O1 [12a-Hydroxyamorphigenin]
[1]; ref [1]
  Class (known P-gp NBD inhibitor): Marginal

## Nc1ncnc2c1ncn2[C@@H]1O[C@H](COP(=O)(O)OP(=O)(O)OP(=O)(O)O)[C@@H](O)[C@H]1O [ATP]
P-gp [2]
  Kd: 300 to 800 µM

## C=C(CO)[C@H]1Cc2c(ccc3c2O[C@@H]2COc4cc(OC)c(OC)cc4[C@@H]2C3=O)O1 [Amorphigenin]
[1]; ref [1]
  Class (known P-gp NBD inhibitor): Marginal

## O=c1cc(-c2ccc(O)cc2)oc2cc(O)cc(O)c12 [Apigenin]
[1]; ref [4]
  Class (known P-gp NBD inhibitor): Marginal

## COc1ccc(-c2coc3cc(O)cc(O)c3c2=O)cc1 [Biochanin A]
[1]; ref [2]
  Class (known P-gp NBD inhibitor): Active

## O=c1cc(-c2ccccc2)oc2cc(O)cc(O)c12 [Chrysin]
[1]; ref [1]
  Class (known P-gp NBD inhibitor): Marginal

## Oc1cc(O)c2c(c1)O[C@H](c1ccc(O)c(O)c1)[C@H](O)C2 [Epicatechin]
[1]; ref [5]
  Class (known P-gp NBD inhibitor): Marginal

## Oc1cc(O)c2c(c1)O[C@H](c1cc(O)c(O)c(O)c1)[C@H](O)C2 [Epigallocatechin]
[1]; ref [1]
  Class (known P-gp NBD inhibitor): Marginal

## O=C(O[C@@H]1Cc2c(O)cc(O)cc2O[C@@H]1c1cc(O)c(O)c(O)c1)c1cc(O)c(O)c(O)c1 [Epigallocatechingallate (EGCG), Epigallocatechingallate]
[1]; ref [3]
  Class (known P-gp NBD inhibitor): Active

## O=c1c(O)c(-c2ccccc2)oc2cc(O)cc(O)c12 [Galangin]
[1]; ref [4]
  Class (known P-gp NBD inhibitor): Marginal

## C=C(C)[C@H]1Cc2c(ccc3c2O[C@@H]2COc4cc(OC)c(OC)cc4[C@@H]2C3=O)O1 [Rotenone]
[1]; ref [1]
  Class (known P-gp NBD inhibitor): Active

## COc1cc(C2Oc3cc([C@H]4Oc5cc(O)cc(O)c5C(=O)[C@@H]4O)ccc3OC2CO)ccc1O (some centres unmarked) [Silybin]
[1]; ref [4]
  Class (known P-gp NBD inhibitor): Marginal

## COc1cc2c(cc1OC)CN(CCc1ccc(NC(=O)c3cc(OC)c(OC)cc3NC(=O)c3cnc4ccccc4c3)cc1)CC2 [Tariquidar]
P-gp [3]; 1 µM Tariquidar plus 50 µM verapamil
  Effect on verapamil-stimulated sensitive P-gp ATPase activity: reduced to the background buffer level
P-gp [3]; [5]
  IC50: 0.11 µM

## Cn1cnnc1CC(NS(=O)(=O)N1CCC(C(C)(C)C)CC1)C(=O)O (centres unmarked) [compound 10]
P-gp [3]; [5]
  IC50: 332 µM
P-gp [3]; log of IC50 in µM, Sf9 vesicles, read-out: ATP assay Log IC50 (converted)
  IC50: 331 µM
P-gp [4]; MDCKII MDR1 cells, extracellular pH 5.5, 5.0 µM calcein-AM, read-out: Calcein-AM, pH 5.5 IC50
  IC50: 127 µM
P-gp [4]; MDCKII MDR1 cells, extracellular pH 7.4, 5.0 µM calcein-AM, read-out: Calcein-AM, pH 7.4 IC50
  IC50: 299 µM
P-gp [4]; at both pH 5.5 and pH 7.4
  Ability to inhibit calcein-AM efflux: ability to inhibit calcein-AM efflux at both pH 5.5 and pH 7.4
P-gp [4]; log of IC50 in µM, extracellular pH 5.5
  Calcein-AM, pH 5.5 LogIC50: 2.10
P-gp [4]; log of IC50 in µM, extracellular pH 7.4, read-out: Calcein-AM, pH 7.4 Log IC50 (converted)
  IC50: 302 µM

## COc1ccc(-c2oc3cc(O)cc(O)c3c(=O)c2O)cc1 [kaempferide]
[1]; ref [4]
  Class (known P-gp NBD inhibitor): Marginal

## O=c1c(O)c(-c2ccc(O)cc2)oc2cc(O)cc(O)c12 [kaempferol]
[1]; ref [4]
  Class (known P-gp NBD inhibitor): Marginal

## Mitragynine
[1]; ref [6]
  Class (known P-gp NBD inhibitor): Marginal
